In patent US8735414B2 (priority 2009, dated 2014):

Tests used:
[1] = system: bicistronic HCV replicon (replicon RNA, GenBank Accession No. AJ242654); assay: HCV Replicon Assay; type: cell-based; details: Hepatitis C virus, 72 h, read-out: Replicon IC50

Row | SMILES | melting point [°C] | IC50 [1] [nM]
1 | C[C@H](NS(=O)(=O)c1ccc(-c2c(C(N)=O)c3c(F)cc(OC(F)F)cc3n2CC2CC2)nc1)C(F)(F)F [compound 840, 1-(cyclopropylmethyl)-6-(difluoromethoxy)-4-fluoro-2-(5-{[(2S)-1,1,1-trifluoropropan-2-yl]sulfamoyl}pyridin-2-yl)-1H-indole-3-carboxamide] | 211 to 212 | < 500
2 | C[C@H](NS(=O)(=O)c1cnc(-c2c(C#N)c3cc(F)ccc3n2CC2CC2)nc1)C(F)(F)F [compound 548, 2-[3-cyano-1-(cyclopropylmethyl)-5-fluoro-1H-indol-2-yl]-N-[(2S)-1,1,1-trifluoropropan-2-yl]pyrimidine-5-sulfonamide] | 175 to 180 | 500 to 2000
3 | Cc1cc2c(cc1F)c(C#N)c(-c1ccc(S(=O)(=O)N[C@@H](C)C(F)(F)F)cn1)n2-c1cscc1C [compound 1056, 6-[3-cyano-5-fluoro-6-methyl-1-(4-methylthiophen-3-yl)-1H-indol-2-yl]-N-[(2S)-1,1,1-trifluoropropan-2-yl]pyridine-3-sulfonamide] | 223.2 to 227.1 | < 500
4 | Cc1cc2c(cc1F)c(C#N)c(-c1ccc(S(=O)(=O)N[C@@H](C)C(F)(F)F)cn1)n2-c1occc1C#N [compound 1072, 6-[3-cyano-1-(3-cyanofuran-2-yl)-5-fluoro-6-methyl-1H-indol-2-yl]-N-[(2S)-1,1,1-trifluoropropan-2-yl]pyridine-3-sulfonamide] | 238 to 243.6 | 500 to 2000
5 | N#Cc1c(-c2ccc(NS(=O)(=O)C3CC3)cn2)n(CC2CC2)c2cc(OC(F)F)ccc12 [compound 270, N-{6-[3-cyano-1-(cyclopropylmethyl)-6-(difluoromethoxy)-1H-indol-2-yl]pyridin-3-yl}cyclopropanesulfonamide] | 156 to 158 | 2000 to 5000
6 | CC(C)(NS(=O)(=O)c1ccc(-c2c(C#N)c3ccc(OC(F)F)cc3n2-c2ncccn2)nc1)C(F)(F)F [compound 663, 6-[3-cyano-6-(difluoromethoxy)-1-(pyrimidin-2-yl)-1H-indol-2-yl]-N-(1,1,1-trifluoro-2-methylpropan-2-yl)pyridine-3-sulfonamide] | 179 to 180 | 500 to 2000
7 | Cc1cc2c(cc1O)c(C(N)=O)c(-c1ccc(S(=O)(=O)N[C@@H](C)C(F)(F)F)cn1)n2C1CCC1 [compound 833, 1-cyclobutyl-5-hydroxy-6-methyl-2-(5-{[(2S)-1,1,1-trifluoropropan-2-yl]sulfamoyl}pyridin-2-yl)-1H-indole-3-carboxamide] | 256 to 258 | 500 to 2000
8 | CCc1cc2c(cc1F)c(C#N)c(-c1ncc(S(=O)(=O)N[C@@H](C)C(F)(F)F)cc1C)n2-c1ncccn1 [compound 867, 6-[3-cyano-6-ethyl-5-fluoro-1-(pyrimidin-2-yl)-1H-indol-2-yl]-5-methyl-N-[(2S)-1,1,1-trifluoropropan-2-yl]pyridine-3-sulfonamide] | 192 to 198 | < 500
9 | COc1ccc2c(C#N)c(-c3ncc(S(=O)(=O)N[C@@H](C)C4CC4)cn3)n(C3CCCC3)c2c1 [compound 206, 2-(3-cyano-1-cyclopentyl-6-methoxy-1H-indol-2-yl)-N-[(1S)-1-cyclopropylethyl]pyrimidine-5-sulfonamide] | 192 to 194 | 500 to 2000
10 | Cc1cc2c(cc1F)c(C#N)c(-c1ncc(S(=O)(=O)N[C@@H](C)C(F)(F)F)cc1C)n2-c1ccccn1 [compound 889, 6-[3-cyano-5-fluoro-6-methyl-1-(pyridin-2-yl)-1H-indol-2-yl]-5-methyl-N-[(2S)-1,1,1-trifluoropropan-2-yl]pyridine-3-sulfonamide] | 197 to 202 | < 500
11 | Cc1c(F)cc2c(C#N)c(-c3ccc(S(=O)(=O)NC(CF)CF)cn3)n(C3CCC3)c2c1F [compound 533, 6-(3-cyano-1-cyclobutyl-5,7-difluoro-6-methyl-1H-indol-2-yl)-N-(1,3-difluoropropan-2-yl)pyridine-3-sulfonamide] | 158 to 170 | < 500
12 | N#Cc1c(-c2ccc(S(=O)(=O)NC(CF)CF)cn2)n(C2CCC2)c2cc(Cl)ccc12 [compound 37, 6-(6-chloro-3-cyano-1-cyclobutyl-1H-indol-2-yl)-N-(1,3-difluoropropan-2-yl)pyridine-3-sulfonamide] | 200 to 202 | < 500
13 | Cc1ccc2c(C#N)c(-c3ccc(S(=O)(=O)NC4(C(F)(F)F)CC4)cn3)n(CC3CC3)c2c1 [compound 255, 6-[3-cyano-1-(cyclopropylmethyl)-6-methyl-1H-indol-2-yl]-N-[1-(trifluoromethyl)cyclopropyl]pyridine-3-sulfonamide] | 191 to 195 | < 500
14 | C[C@@H](NS(=O)(=O)c1ccc(-c2c(C#N)c3ccc(OC(F)F)cc3n2-c2ccccc2)nc1)C(F)(F)F [compound 554, 6-[3-cyano-6-(difluoromethoxy)-1-phenyl-1H-indol-2-yl]-N-[(2R)-1,1,1-trifluoropropan-2-yl]pyridine-3-sulfonamide] | 212 to 213 | < 500
15 | Cc1cc2c(C#N)c(-c3ncc(S(=O)(=O)NC(C)C)cn3)n(C3CCCC3)c2cc1Cl [compound 523, 2-(6-chloro-3-cyano-1-cyclopentyl-5-methyl-1H-indol-2-yl)-N-(propan-2-yl)pyrimidine-5-sulfonamide] | 216 to 216.5 | 500 to 2000
16 | CC(C)NS(=O)(=O)c1ccc(-c2c(C#N)c3cccc(F)c3n2C2CCCC2)nc1 [compound 66, 6-(3-cyano-1-cyclopentyl-7-fluoro-1H-indol-2-yl)-N-(propan-2-yl)pyridine-3-sulfonamide] | 152 to 153 | < 500
17 | COc1ccc2c(c1)c(C#N)c(-c1ncc(S(=O)(=O)NC(CF)CF)cn1)n2C1CCC1 [compound 551, 2-(3-cyano-1-cyclobutyl-5-methoxy-1H-indol-2-yl)-N-(1,3-difluoropropan-2-yl)pyrimidine-5-sulfonamide] | 217 to 219 | < 500
18 | CCOc1cc2c(cc1F)c(C#N)c(-c1ccc(S(=O)(=O)N[C@@H](C)C(F)(F)F)cn1)n2C1CCC1 [compound 726, 6-(3-cyano-1-cyclobutyl-6-ethoxy-5-fluoro-1H-indol-2-yl)-N-[(2S)-1,1,1-trifluoropropan-2-yl]pyridine-3-sulfonamide] | 193 to 196 | < 500
19 | C[C@H](NS(=O)(=O)c1ccc(-c2c(C(N)=O)c3cc(F)c(C4CC4)cc3n2C2CCC2)nc1)C(F)(F)F [compound 731, 1-cyclobutyl-6-cyclopropyl-5-fluoro-2-(5-{[(2S)-1,1,1-trifluoropropan-2-yl]sulfamoyl}pyridin-2-yl)-1H-indole-3-carboxamide] | 225 to 227 | < 500
20 | CC(C)Sc1ccc2c(C#N)c(-c3ccc(S(=O)(=O)N4CCCCC4)cn3)n(C3CCC3)c2c1 [compound 22, 1-cyclobutyl-2-[5-(piperidin-1-ylsulfonyl)pyridin-2-yl]-6-(propan-2-ylsulfanyl)-1H-indole-3-carbonitrile] | 169 to 171 | 500 to 2000
21 | Cc1c(F)cc2c(C#N)c(-c3ncc(S(=O)(=O)NC(CF)CF)cn3)n(C3CCCC3)c2c1F [compound 656, 2-(3-cyano-1-cyclopentyl-5,7-difluoro-6-methyl-1H-indol-2-yl)-N-(1,3-difluoropropan-2-yl)pyrimidine-5-sulfonamide] | 230 to 234 | < 500
22 | COc1ccc2c(C#N)c(-c3ncc(S(=O)(=O)N[C@H](C)C(F)(F)F)cn3)n(C3CCC3)c2c1 [compound 183, 2-(3-cyano-1-cyclobutyl-6-methoxy-1H-indol-2-yl)-N-[(2R)-1,1,1-trifluoropropan-2-yl]pyrimidine-5-sulfonamide] | 147 to 149 | 500 to 2000
23 | C[C@H](NS(=O)(=O)c1cnc(-c2c(C#N)c3cc(F)ccc3n2C2CCC2)nc1)C1CC1 [compound 544, 2-(3-cyano-1-cyclobutyl-5-fluoro-1H-indol-2-yl)-N-[(1S)-1-cyclopropylethyl]pyrimidine-5-sulfonamide] | 178 to 181 | < 500
24 | Cc1ccc2c(c1)c(C#N)c(-c1ncc(S(=O)(=O)N[C@@H](C)C(F)(F)F)cn1)n2C1CCC1 [compound 414, 2-(3-cyano-1-cyclobutyl-5-methyl-1H-indol-2-yl)-N-[(2S)-1,1,1-trifluoropropan-2-yl]pyrimidine-5-sulfonamide] | 190 to 195 | < 500
25 | C[C@@H](NS(=O)(=O)c1ccc(-c2c(C#N)c3ccc(Cl)cc3n2-c2ccccn2)nc1)C(F)(F)F [compound 489, 6-[6-chloro-3-cyano-1-(pyridin-2-yl)-1H-indol-2-yl]-N-[(2R)-1,1,1-trifluoropropan-2-yl]pyridine-3-sulfonamide] | 198 to 199 | 500 to 2000
26 | Cc1nc(NS(=O)(=O)C(C)(C)C)ccc1-c1c(C(N)=O)c2cc(F)c(OC(F)F)cc2n1[C@@H](C)C1CC1 [compound 1096, 2-{6-[(tert-butylsulfonyl)amino]-2-methylpyridin-3-yl}-1-[(1S)-1-cyclopropylethyl]-6-(difluoromethoxy)-5-fluoro-1H-indole-3-carboxamide] | 147 to 151 | < 500
27 | CCc1cc2c(cc1F)c(C(=O)O)c(-c1ncc(NS(=O)(=O)C(C)(C)C)cn1)n2C1CCCCC1 [compound 1028, 2-{5-[(tert-butylsulfonyl)amino]pyrimidin-2-yl}-1-cyclohexyl-6-ethyl-5-fluoro-1H-indole-3-carboxylic acid] | 236 to 237 | 2000 to 5000
28 | CCc1cc2c(cc1F)c(C#N)c(-c1ccc(S(=O)(=O)N[C@@H](C)C(F)(F)F)cn1)n2-c1nccs1 [compound 935, 6-[3-cyano-6-ethyl-5-fluoro-1-(1,3-thiazol-2-yl)-1H-indol-2-yl]-N-[(2S)-1,1,1-trifluoropropan-2-yl]pyridine-3-sulfonamide] | 187 to 191 | < 500
